According to patent US20220281841A1, “ETHYNYLHETEROCYCLES AS RHO-ASSOCIATED COILED-COIL KINASE (ROCK) INHIBITORS” (Angion Biomedica Corp., priority 2019, published 2022):
Where a name gives a salt, the structure may show the parent alone. Read-outs that look alike come from different tables or passages of the source.

Columns and labels:
ROCK1 = biological target: T1, ROCK1 (Homo sapiens, UniProt Q13464); test: ROCK1 kinase binding affinity, DiscoverX KINOMEscan KdELECT; settings: equilibrium dissociation constant, 11-point 3-fold dilution series
T1 construct: purchased DiscoverX (KINOMEscan KdELECT service); host or cells: E. coli BL21-derived (T7 phage) or HEK-293
Procedure: (§1) 1. ROCK1 and ROCK2 kinase assays: The ROCK1 and ROCK2 kinase binding affinities of compounds in this invention were determined by DiscoverX's KINOMEscan™ KdELECT technology (https://www.discoverx.com/kinomescan-elect-kinase-screening-and-profiling-services): Kinase-tagged T7 phage strains were prepared in an E. coli host derived from the BL21 strain. E. coli were grown to log-phase and infected with T7 phage and incubated with shaking at 32° C. until lysis. The lysates were centrifuged and filtered to remove cell debris. The remaining kinases were produced in HEK-293 cells and subsequently tagged with DNA for qPCR detection. Streptavidin-coated magnetic beads were treated with biotinylated small molecule ligands for 30 minutes at room temperature to generate affinity resins for kinase assays. The liganded beads were blocked with excess biotin and washed with blocking buffer (SeaBlock (Pierce), 1% BSA, 0.05% Tween 20, 1 mM DTT) to remove unbound ligand and to reduce nonspecific binding. […] Test compounds were prepared as 111X stocks in 100% DMSO. Kds were determined using an 11-point 3-fold compound dilution series with three DMSO control points. […] The compounds were then diluted directly into the assays such that the final concentration of DMSO was 0.9%. All reactions performed in polypropylene 384-well plate. Each was a final volume of 0.02 ml. […] The kinase concentration in the eluates was measured by qPCR.

ROCK2 = biological target: T2, ROCK2 (Homo sapiens, UniProt O75116); test: ROCK2 kinase binding affinity, DiscoverX KINOMEscan KdELECT; settings: for ROCK 2 Selectivity: ROCK2 over ROCK1, from Kd values, N/C = not calculated
T2 construct: purchased DiscoverX (KINOMEscan KdELECT service); host or cells: E. coli BL21-derived (T7 phage) or HEK-293
Procedure: as §1

fibroblasts = fibroblasts treated with KD025; cited from earlier work
[1] = tested on: murine autoimmune disease; settings: cited from earlier work
[2] = 12-16 weeks of dosing in healthy volunteers and patients; cited from earlier work
[3] = equilibrium dissociation constant, 11-point 3-fold dilution series, read-out: Kd (μM) ROCK2

T2 sequence (O75116 whole entry): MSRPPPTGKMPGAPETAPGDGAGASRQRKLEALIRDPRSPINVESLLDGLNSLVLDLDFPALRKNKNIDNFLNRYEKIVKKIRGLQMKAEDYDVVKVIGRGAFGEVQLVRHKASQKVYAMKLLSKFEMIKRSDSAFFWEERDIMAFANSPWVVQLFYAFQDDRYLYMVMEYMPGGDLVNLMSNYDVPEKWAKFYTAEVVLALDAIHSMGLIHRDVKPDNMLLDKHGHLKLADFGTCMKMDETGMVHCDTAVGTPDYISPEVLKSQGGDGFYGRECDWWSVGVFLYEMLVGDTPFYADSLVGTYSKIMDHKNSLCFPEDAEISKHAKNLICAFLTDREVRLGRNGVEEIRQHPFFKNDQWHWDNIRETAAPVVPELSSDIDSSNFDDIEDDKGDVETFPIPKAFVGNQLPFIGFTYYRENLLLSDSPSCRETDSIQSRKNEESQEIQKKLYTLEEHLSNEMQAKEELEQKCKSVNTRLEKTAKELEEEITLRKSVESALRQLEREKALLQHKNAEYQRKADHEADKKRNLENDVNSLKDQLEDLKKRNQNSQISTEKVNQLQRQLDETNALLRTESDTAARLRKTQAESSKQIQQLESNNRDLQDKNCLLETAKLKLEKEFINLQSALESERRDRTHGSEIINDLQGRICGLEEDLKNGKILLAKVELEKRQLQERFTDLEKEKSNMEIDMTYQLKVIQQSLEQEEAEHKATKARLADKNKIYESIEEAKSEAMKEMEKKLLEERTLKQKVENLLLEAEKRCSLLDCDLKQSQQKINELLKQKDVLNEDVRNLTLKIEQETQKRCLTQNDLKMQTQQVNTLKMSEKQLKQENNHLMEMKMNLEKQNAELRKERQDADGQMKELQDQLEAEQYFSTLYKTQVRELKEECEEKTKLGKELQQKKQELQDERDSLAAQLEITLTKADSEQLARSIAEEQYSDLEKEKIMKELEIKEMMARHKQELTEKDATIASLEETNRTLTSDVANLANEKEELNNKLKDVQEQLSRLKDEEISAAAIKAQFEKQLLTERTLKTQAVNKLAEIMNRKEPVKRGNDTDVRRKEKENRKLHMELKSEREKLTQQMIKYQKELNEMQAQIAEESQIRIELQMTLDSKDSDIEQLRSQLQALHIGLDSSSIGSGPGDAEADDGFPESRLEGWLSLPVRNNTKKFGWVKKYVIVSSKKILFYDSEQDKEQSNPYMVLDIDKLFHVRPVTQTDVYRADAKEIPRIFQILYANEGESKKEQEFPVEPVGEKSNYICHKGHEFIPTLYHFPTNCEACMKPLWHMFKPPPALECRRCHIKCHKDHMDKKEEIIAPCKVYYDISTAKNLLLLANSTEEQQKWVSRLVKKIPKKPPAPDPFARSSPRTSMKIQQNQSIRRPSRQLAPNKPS
T1 sequence (Q13464 whole entry): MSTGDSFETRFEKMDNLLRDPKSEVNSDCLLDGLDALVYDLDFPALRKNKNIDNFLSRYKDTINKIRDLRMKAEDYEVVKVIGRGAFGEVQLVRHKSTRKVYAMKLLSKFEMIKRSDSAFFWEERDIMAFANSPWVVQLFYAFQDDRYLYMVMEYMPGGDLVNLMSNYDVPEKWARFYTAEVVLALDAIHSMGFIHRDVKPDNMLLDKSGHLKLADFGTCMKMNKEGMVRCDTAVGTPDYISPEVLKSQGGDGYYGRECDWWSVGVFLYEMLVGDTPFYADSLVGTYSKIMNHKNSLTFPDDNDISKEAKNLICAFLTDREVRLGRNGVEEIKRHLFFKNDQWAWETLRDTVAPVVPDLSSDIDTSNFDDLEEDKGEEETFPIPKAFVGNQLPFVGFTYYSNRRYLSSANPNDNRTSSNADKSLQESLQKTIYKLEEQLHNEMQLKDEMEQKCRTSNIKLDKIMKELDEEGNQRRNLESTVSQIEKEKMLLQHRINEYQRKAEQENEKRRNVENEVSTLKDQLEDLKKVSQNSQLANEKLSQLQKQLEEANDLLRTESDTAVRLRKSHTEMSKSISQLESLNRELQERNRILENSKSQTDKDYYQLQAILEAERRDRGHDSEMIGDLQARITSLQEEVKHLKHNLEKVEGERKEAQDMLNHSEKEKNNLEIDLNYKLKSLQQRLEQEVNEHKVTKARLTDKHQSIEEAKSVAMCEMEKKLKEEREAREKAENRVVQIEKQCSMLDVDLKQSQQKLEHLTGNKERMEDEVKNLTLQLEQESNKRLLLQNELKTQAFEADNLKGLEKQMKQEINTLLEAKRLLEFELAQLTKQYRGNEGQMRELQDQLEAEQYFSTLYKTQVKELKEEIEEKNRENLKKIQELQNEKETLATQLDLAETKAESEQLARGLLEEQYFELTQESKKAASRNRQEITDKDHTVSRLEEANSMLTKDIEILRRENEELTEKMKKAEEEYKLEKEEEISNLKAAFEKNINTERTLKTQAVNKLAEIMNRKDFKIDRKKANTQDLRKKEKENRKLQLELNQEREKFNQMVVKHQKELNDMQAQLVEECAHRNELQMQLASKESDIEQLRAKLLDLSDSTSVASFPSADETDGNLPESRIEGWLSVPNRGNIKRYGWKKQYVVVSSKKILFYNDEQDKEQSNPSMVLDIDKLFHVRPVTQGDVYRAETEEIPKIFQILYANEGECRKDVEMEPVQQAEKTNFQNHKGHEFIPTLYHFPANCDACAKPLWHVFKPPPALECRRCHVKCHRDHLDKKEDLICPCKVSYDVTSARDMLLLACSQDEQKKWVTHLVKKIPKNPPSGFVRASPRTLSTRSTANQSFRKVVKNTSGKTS

Compound	Kd (ROCK1) [µM]	ROCK 2 Selectivity (ROCK2)	Kd (ROCK2; [3]) [µM]	Kd (ROCK2) [µM]	expression of profibrotic mRNA (fibroblasts)	expression of pro-inflammatory, fibrosis-linked cytokines; autoimmune disease [1]	hemodynamic or other side effects [2]
COCCOc1cc2c(cn1)CN(c1nccc(-c3nccc(C#Cc4ccc5[nH]ncc5c4)n3)n1)C2 [Ex. 37, 5-((2′-(6-(2-Methoxyethoxy)-1,3-dihydro-2H-pyrrolo[3,4-c]pyridin-2-yl)-[2,4′-bipyrimidin]-4-yl)ethynyl)-1H-indazole]	5.7	51.8	0.11				
Fc1cc(C#Cc2ccc3[nH]ncc3c2)cc(-c2ccnc(N3Cc4ccc(Br)cc4C3)n2)c1 [Ex. 27, 5-((3-(2-(5-Bromoisoindolin-2-yl)pyrimidin-4-yl)-5-fluorophenyl)ethynyl)-1H-indazole]	> 30		> 30				
C(#Cc1ccnc(-c2ccnc(N3CCN(c4nccs4)CC3)n2)n1)c1ccc2[nH]ncc2c1 [Ex. 63, 2-(4-(4-((1H-Indazol-5-yl)ethynyl)-[2,4′-bipyrimidin]-2′-yl)piperazin-1-yl)thiazole]	> 30	>90.9	0.33				
COCCN1CCN(c2cc3c(cn2)CN(c2nccc(-c4nccc(C#Cc5ccc6[nH]ncc6c5)n4)n2)C3)CC1 [Ex. 36, 5-((2′-(6-(4-(2-Methoxyethyl)piperazin-1-yl)-1,3-dihydro-2H-pyrrolo[3,4-c]pyridin-2-yl)-[2,4′-bipyrimidin]-4-yl)ethynyl)-1H-indazole trifluoroacetate salt]	0.069	7.26	0.0095				
Fc1ccc(C2CCN(c3nccc(-c4nccc(C#Cc5ccc6[nH]ncc6c5)n4)n3)CC2)cc1 [Ex. 56, 5-((2′-(4-(4-Fluorophenyl)piperidin-1-yl)-[2,4′-bipyrimidin]-4-yl)ethynyl)-1H-indazole]	26	35.6	0.73				
COc1ccc2c(c1)CN(c1nccc(-c3cc(F)cc(C#Cc4ccc5[nH]ncc5c4)c3)n1)C2 [Ex. 24, 5-((3-Fluoro-5-(2-(5-methoxyisoindolin-2-yl)pyrimidin-4-yl)phenyl)ethynyl)-1H-indazole]	> 30		> 30				
CN1CCN(c2ccc3c(c2)CN(c2nccc(-c4nccc(C#Cc5ccc6[nH]ncc6c5)n4)n2)C3)CC1 [Ex. 40, 5-((2′-(5-(4-Methylpiperazin-1-yl)isoindolin-2-yl)-[2,4′-bipyrimidin]-4-yl)ethynyl)-1H-indazole]	12	144	0.083				
COc1ccc2c(c1)CN(c1nccc(-c3cccc(C#Cc4cc(F)c5[nH]ncc5c4)n3)n1)C2 [Ex. 19, 7-Fluoro-5-((6-(2-(5-methoxyisoindolin-2-yl)pyrimidin-4-yl)pyridin-2-yl)ethynyl)-1H-indazole]	> 30	>10.7		2.8			
CC(C)NC(=O)COc1cccc(-c2nc(Nc3ccc4[nH]ncc4c3)c3ccccc3n2)c1 [KD025]					decreased expression of several profibrotic mRNA including that of CTGF	decreased expression of pro-inflammatory, fibrosis-linked cytokines and mitigated murine autoimmune disease	no hemodynamic or other side effects
COc1ccc2c(c1)CN(c1nccc(-c3nccc(C#Cc4ccc5[nH]nc(F)c5c4)n3)n1)C2 [Ex. 5, 3-Fluoro-5-((2′-(5-methoxyisoindolin-2-yl)-[2,4′-bipyrimidin]-4-yl)ethynyl)-1H-indazole]	> 30	>1500	0.02				
Fc1cc(C#Cc2ccc3[nH]ncc3c2)cc(-c2ccnc(N3Cc4ccc(F)cc4C3)n2)c1 [Ex. 25, 5-((3-Fluoro-5-(2-(5-fluoroisoindolin-2-yl)pyrimidin-4-yl)phenyl)ethynyl)-1H-indazole]	> 30		> 30				
C(#Cc1ccnc(-c2ccnc(N3CCN(c4ccccc4)CC3)n2)n1)c1ccc2[nH]ncc2c1 [Ex. 52, 5-((2′-(4-Phenylpiperazin-1-yl)-[2,4′-bipyrimidin]-4-yl)ethynyl)-1H-indazole]	9	26.5	0.34				
Fc1ccc2c(c1)CN(c1nccc(-c3cccc(C#Cc4ccc5[nH]ncc5c4)n3)n1)C2 [Ex. 20, 5-((6-(2-(5-Fluoroisoindolin-2-yl)pyrimidin-4-yl)pyridin-2-yl)ethynyl)-1H-indazole]	> 30	>5.4	5.5				
COc1ccc2c(c1)CN(c1nccc(-c3nccc(C#Cc4ccc5c(N)nccc5c4)n3)n1)C2 [Ex. 4, 6-((2′-(5-Methoxyisoindolin-2-yl)-[2,4′-bipyrimidin]-4-yl)ethynyl)isoquinolin-1-amine]	> 30	>3.66	8.2				
O=C(O)c1ccc(C2CN(c3nccc(-c4nccc(C#Cc5ccc6[nH]ncc6c5)n4)n3)C2)cc1 [Ex. 51, 4-(1-(4-((1H-Indazol-5-yl)ethynyl)-[2,4′-bipyrimidin]-2′-yl)azetidin-3-yl)benzoic acid]	11	73	0.15				
Clc1cc2c(cn1)CN(c1nccc(-c3nccc(C#Cc4ccc5[nH]ncc5c4)n3)n1)C2 [Ex. 17, 5-((2′-(6-Chloro-1,3-dihydro-2H-pyrrolo[3,4-c]pyridin-2-yl)-[2,4′-bipyrimidin]-4-yl)ethynyl)-1H-indazole]	> 6	>122	0.049				
COc1ccc2c(c1)CN(c1nccc(-c3nccc(C#Cc4ccncc4)n3)n1)C2 [Ex. 1, 5-Methoxy-2-(4-(pyridin-4-ylethynyl)-[2,4′-bipyrimidin]-2′-yl)isoindoline]	> 30		> 30				
C(#Cc1ccnc(-c2ccnc(N3CC(c4ccccc4)C3)n2)n1)c1ccc2[nH]ncc2c1 [Ex. 48, 5-((2′-(3-Phenylazetidin-1-yl)-[2,4′-bipyrimidin]-4-yl)ethynyl)-1H-indazole trifluoroacetate]	5.5	36.7	0.15				
